From ChEMBL document CHEMBL1671801, “Melampomagnolide B: a new antileukemic sesquiterpene” (Bioorg Med Chem, 2011)
The source made the active and inactive calls.

Experiments:
AML [1] = experiment: Inhibition of NF-kappaB activity in human AML cells assessed as phosphorylation of NF-kappaB p65 subunit at Ser-536 at 15 uM by immunoblotting; assay type: cell-based
AML [2] = experiment: Cytotoxicity against human AML cells at 20 to 30 uM after 24 hrs using Annexin-V and 7-AAD staining by flow cytometry; assay type: functional, cell-based
AML [3] = experiment: Binding affinity to NF-kappaB p65 activity in human AML cells after 4 hrs streptavidin beads pull-down assay; assay type: cell-based
[4] = target: T1, Inhibitor of nuclear factor kappa-B kinase subunit beta (Homo sapiens) (UniProt O14920); experiment: Binding affinity to IKK-beta activity in human AML cells after 4 hrs streptavidin beads pull-down assay; assay type: cell-based
T1 sequence (whole entry): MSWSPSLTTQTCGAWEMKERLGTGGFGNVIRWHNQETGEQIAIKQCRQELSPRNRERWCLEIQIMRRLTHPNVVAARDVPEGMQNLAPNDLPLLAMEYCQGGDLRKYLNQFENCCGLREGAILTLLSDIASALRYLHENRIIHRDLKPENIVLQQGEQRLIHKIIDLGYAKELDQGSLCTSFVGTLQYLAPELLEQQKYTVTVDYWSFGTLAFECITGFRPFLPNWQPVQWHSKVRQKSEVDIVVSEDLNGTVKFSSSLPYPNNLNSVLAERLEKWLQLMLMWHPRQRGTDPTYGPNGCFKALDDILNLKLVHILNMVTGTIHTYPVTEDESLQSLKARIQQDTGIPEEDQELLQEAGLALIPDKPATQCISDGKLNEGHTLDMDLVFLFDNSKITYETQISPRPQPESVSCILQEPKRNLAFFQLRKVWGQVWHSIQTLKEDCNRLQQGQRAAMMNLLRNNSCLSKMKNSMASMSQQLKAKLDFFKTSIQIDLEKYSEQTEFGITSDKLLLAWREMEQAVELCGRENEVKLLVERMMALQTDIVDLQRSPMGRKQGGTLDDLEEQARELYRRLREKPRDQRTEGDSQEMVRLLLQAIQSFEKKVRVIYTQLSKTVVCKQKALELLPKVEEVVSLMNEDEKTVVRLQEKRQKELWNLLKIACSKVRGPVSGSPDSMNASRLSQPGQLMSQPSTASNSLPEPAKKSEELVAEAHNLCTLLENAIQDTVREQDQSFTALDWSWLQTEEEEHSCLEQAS

AML [5] = experiment: Inhibition of NF-kappaB activity in human AML cells assessed as phosphorylation of NF-kappaB p65 subunit at Ser-536 at 7.5 uM by immunoblotting; assay type: cell-based
AML [6] = experiment: Cytotoxicity against human AML cells at 7.5 uM after 24 hrs using Annexin-V and 7-AAD staining by flow cytometry; assay type: functional, cell-based

Measured: Activity

C=C1C(=O)O[C@@H]2[C@H]3O[C@]3(C)CC/C=C(\COC(=O)CCCCCCCCCCCNC(=O)CCCC[C@@H]3SC[C@@H]4NC(=O)N[C@@H]43)CC[C@@H]12
active: AML [1] | AML [2] | AML [3] | [4]

C=C1C(=O)O[C@@H]2[C@H]3O[C@]3(C)CC/C=C(\CO)CC[C@@H]12
active: AML [5] | AML [6]
